Laboratory results as given in US4696920A, “Certain 2-substituted 1,3-propylidenediphosphonate derivatives, pharmaceutical compositions containing them and their use as antihypertensive agents” (priority 1984, dated 1987).

What was measured:
[1] = tested on: mean blood pressure in rat; test: Acute intravenous hypotensive activity in anesthetized rats; assay type: in vivo, rat (male Wistar); settings: Rattus norvegicus, iv, read-out: Decrease in mean blood pressure (% pretest)
Experimental: Male Wistar rats were anesthetized with Pentobarbital (Nembutal, 60 mg/kg i.p.) and heparinized (5 mg/kg i.p.). After tracheotomy the right carotid was cannulated (catheter PE 50); blood pressure was measured with a pressure transducer (Statham P 23 db) and recorded on a polygraph (Beckman).
Animals received 0.5 and 1.5 mg/kg of the test compounds. Less than 100 μl of test compounds dissolved in 0.9% saline were injected in the jugular vein. Highly water insoluble compounds were suspended in 2% Tween-80. Injection of the vehicle alone had no detectable hypotensive effect.
Results presented are expressed as percent decrease in initial mean blood pressure (Mean±SEM).

[2] = tested on: calcium channel binding site for [^3 H]-Nitrendipine (rat brain membranes); test: [^3 H]-Nitrendipine binding to rat brain membranes; set-up: species or system rat (male Wistar); settings: Table 1a; for Specifically bound [^3 H]-Nitrendipine % of control value: compound concentration 1.0 μM; for Bound ^3 H at 1.0 μM / Bound ^3 H at 0.1 μM: ratio of [^3 H]-Nitrendipine bound at 1.0 and 0.1 μM compound
Experimental: (§1) Diltiazem hydrochloride was a generous gift from Goedecke A. G.
Suitable dilutions were made in 50 mM Tris-HCl buffer (pH 7.4) containing 150 mM NaCl and 1 mM CaCl2. The ethanol concentration in the final assay never exceeded 0.1%.
(§2) The purity of the radioligand and of the various agents tested was monitored by thin layer chromatography on silica gel plates.
(§3) The following procedure was adapted from Bellemann et al (Proc. Nat. Acad. Sci. 80, 2356, 1983), and Gould et al (Proc. Nat. Acad. Sci. 79, 3656, 1982).
(§4) Adult male Wistar rats weighing 250-300 g were anesthetized with carbon dioxide prior to decapitation. The brain was removed then immersed in ice-cold 0.32M sucrose and washed 2-3 times with fresh solution. Cerebral cortex was minced and homogenized (Potter-Elvehjem homogenizer) in 10 volumes of ice-cold sucrose solution. The homogenate was centrifuged (4° C.) at 1000×g for 15 minutes. The resulting supernatant was then centrifuged at 90000×g (30 minutes) and the pellet was washed twice with 20 ml ice-cold 50 mM Tris-HCl pH 7.4.
(§5) The final pellet was resuspended in 50 mM Tris-HCl pH 7.4/150 mM NaCl/1 mM CaCl2 to give a protein concentration of 4 mg/ml.
(§6) The membrane suspension was kept on ice until used. Binding assays were performed in subdued light to prevent dihydropyridine breakdown. Membrane protein (400 μg/tube) was incubated in 50 mM Tris-HCl buffer (pH 7.4)/150 mM NaCl/1 mM CaCl2 with the indicated concentrations of radioligand and test compounds or known calcium antagonists, in a total volume of 2 ml. After the indicated time intervals, the reaction was terminated by rapid filtration through Whatman GF/B glass fiber filters (2.4 cm diameter) on a Millipore filter holder. The assay tube was rinsed with 2 ml ice-cold 50 mM Tris-HCl pH (7.4) and the precipitate was further washed with 2×5 ml of the same buffer.
(§7) Filters were dried under a heat lamp and were extracted with 10 ml of liquid scintillation cocktail (Toluene/Triton X-100, 2/1 containing 4 g Omnifluor/1) prior to tritium determination at 48% counting efficiency.
(§8) Assays were performed in duplicate or triplicate.
(§9) Data were expressed as percent specific [^3 H]-Nitrendipine binding relative to the established control value.
(§10) Compound activity in the [^3 H]-Nitrendipine binding assay was evaluated by using the following criteria:
(§11) 1. [^3 H]-Nitrendipine binding at 1.0 μM compound final concentration was either below 95% or above 105% of the control value determined in absence of compound.
2. […] This ratio is indicative of a dose response relationship within the compound concentration range tested, when the value differs appreciably from 1.0.

[3] = tested on: rat trachea contraction induced by KCl depolarization; test: KCl-induced rat trachea contraction; set-up: species or system rat (male SHR, Okamoto-Aoki); settings: for activity at 1 µM: Rattus norvegicus, 40 min, read-out: Contraction (% max.); for activity on KCl-induced trachea contraction (in words): final concentration 1.0 μM
Experimental: Spontaneously hypertensive male rats (SHR) Okamoto-Aoki Strain, weighing 300-400 g were used in this study. They were killed by bleeding after Pentobarbital anesthesia (Nembutal, Abbott Co, 40 mg/kg). Their entire trachea was quickly removed and dissected free of fat and connective tissue in Krebs-Ringer solution. A strip (4 mm×40 mm), obtained by spirally cutting the trachea, was immediately suspended in a 50 ml Krebs-Ringer solution and continuously bubbled with a O2 /CO2 (95/5) mixture. Bath temperature was maintained at 37±1° C. The composition (mM) of the Krebs-Ringer solution modified by Nghiem, was as follows: NaCl, (118.0); KCl, (4.7); CaCl2, (2.5); MgCl2, (1.18); NaHCO3, (12.5); KH2 P04, (1.18); glucose, (5.5) in bidistilled water (pH 7.4). Each strip was equilibrated under initial tension (1.5-2 g) for 1-2 hours and the bath solution changed every 30 min. A contractile or relaxant response was isometrically measured with a force-displacement transducer (Ugo-Basile) and recorded on a polygraph (Beckman).
After equilibration, KCl was added to the bath at 65 mM final concentration. This concentration produced maximum trachea contraction. Under these conditions, a plateau phase showing a tonic sustained contraction was reached within 30 minutes. Drugs were added 30 minutes after the plateau phase has been reached (final concentration=1.0 μM). […] Recordings of the residual trachea contraction were made 40 minutes after drug addition to the bathing fluid. The initial KCl induced contraction was taken as the maximum KCl response (100%). Results were expressed as % of maximal contraction. Nifedipine, Prenylamine, Flunarizine and Diltiazem were used as reference standards to validate this assay.
All 1,3-diphosphonates and drugs were dissolved in saline (0.9% NaCl) except when water insoluble, then the compounds were dissolved in 2% ethanol. The final concentration of ethanol used has been shown not to interfere with the assay.
Results are expressed as mean values±SEM, the Student's t-test was used for statistical analysis.

[4] = tested on: [^3 H]-PN-200 110 (dihydropyridine) binding site of calcium channel, rat brain membranes; test: [^3 H]-PN-200 110 binding to rat brain membranes; set-up: species or system rat (male Wistar); settings: for Specifically bound [^3 H]-PN-200 110 % of control value: compound concentration 1.0 μM; for Specifically bound [^3 H]-PN-200 110 % of control value / Bound ^3 H at 1.0 μM / Bound ^3 H at 0.1 μM: Table 1b; for Bound ^3 H at 1.0 μM / Bound ^3 H at 0.1 μM: ratio of [^3 H]-PN-200 110 bound at 1.0 and 0.1 μM compound
Experimental: as §1
Water insoluble compounds were dissolved in absolute ethanol to give 10 mM or 2.5 mM stock solutions. Suitable dilutions were made in 50 mM Tris-HCl buffer (pH 7.4) containing 150 mM NaCl and 1 mM CaCl2. The ethanol concentration in the final assay never exceeded 0.1%.
as §2, §3, §4, §5, §6, §7, §8, §9, §10, §11
2. The ratio obtained by dividing the amount of specifically found [^3 H]-Nitrendipine at 1.0 μM compound final concentration by the value obtained at 0.1 μM test compound, was smaller than 0.9 or greater than 1.1. This ratio is indicative of a dose response relationship within the compound concentration range tested, when the value differs appreciably from 1.0.
Note: In some experiments [^3 H]-PN200 110, a new and commercially available specific dihydropyridine was used instead of [^3 H]-Nitrendipine.

SMILES	Specifically bound [^3 H]-Nitrendipine % of control value [2]	Bound ^3 H at 1.0 μM / Bound ^3 H at 0.1 μM [2]	inhibition in vivo at 0.5 mg/kg [1]	Specifically bound [^3 H]-PN-200 110 % of control value [4]	Bound ^3 H at 1.0 μM / Bound ^3 H at 0.1 μM [4]	also measured
C[C@H](CS)C(=O)N1CCC[C@H]1C(=O)O [Captopril, reference compound]	–	–	–	–	–	inhibition in vivo at 1 mg/kg [1]: 0%
CCOP(=O)(CC(Cc1ccccc1)CP(=O)(OCC)OCC)OCC [Compound 25, Tetraethyl 2-benzyl-1,3-propylidenediphosphonate]	100 % of control value	1.060	23.2 ± 2.2%	–	–	activity at 1 µM [3]: 53 ± 2.5%; activity on KCl-induced trachea contraction (in words) [3]: potent pharmacological activity; inhibition in vivo at 1.5 mg/kg [1]: 41.4 ± 1%
CCOP(=O)(CC(CCc1ccccc1)CP(=O)(OCC)OCC)OCC [Compound 26]	89 % of control value	1.018	18.1 ± 3%	–	–	inhibition in vivo at 1.5 mg/kg [1]: 41.6 ± 1.3%
CCOP(=O)(CC(CCCc1ccccc1)CP(=O)(OCC)OCC)OCC [Compound 27]	95 % of control value	0.982	25.6 ± 2.2%	–	–	inhibition in vivo at 1.5 mg/kg [1]: 35 ± 4.7%
CCOP(=O)(CC(Cc1ccc(Cl)cc1)CP(=O)(OCC)OCC)OCC [Compound 30]	99 % of control value	1.003	17%	–	–	activity at 1 µM [3]: 90%; inhibition in vivo at 1.5 mg/kg [1]: 34.4 ± 5.1%
CCOP(=O)(CC(CCOc1ccccc1)CP(=O)(OCC)OCC)OCC [Compound 33]	–	–	13.2%	–	–	inhibition in vivo at 1.5 mg/kg [1]: 16 ± 0.6%
CCOP(=O)(CC(Cc1cc(OC)c(OC)c(OC)c1)CP(=O)(OCC)OCC)OCC [Compound 36]	100 % of control value	0.966	39.9 ± 1.6%	–	–	–
CCCOP(=O)(CC(CCOc1ccccc1)CP(=O)(OCCC)OCCC)OCCC [Compound 52]	–	–	–	9 % of control value	0.227	–
CCCCOP(=O)(CC(CCOc1cc(C)ccc1C)CP(=O)(OCCCC)OCCCC)OCCCC [Compound 77]	–	–	–	19 % of control value	0.337	–
CCCCOP(=O)(CC(CCCc1ccc([N+](=O)[O-])cc1[N+](=O)[O-])CP(=O)(OCCCC)OCCCC)OCCCC [Compound 98]	–	–	–	19 % of control value	0.780	–
CCCCOP(=O)(CC(Cc1cc2c(cc1Cl)OCO2)CP(=O)(OCCCC)OCCCC)OCCCC [Compound 99]	–	–	–	56 % of control value	0.627	–
CCCCOP(=O)(CC(CCOc1ccc(-c2ccccc2)cc1)CP(=O)(OCCCC)OCCCC)OCCCC [Compound 100]	–	–	–	38 % of control value	0.504	–
CCCCOP(=O)(CC(Cc1cnc(C)c2c1COC(C)(C)O2)CP(=O)(OCCCC)OCCCC)OCCCC [Compound 101]	–	–	–	47 % of control value	0.527	–
CCCCOP(=O)(CC(Cc1cnc(C)c(O)c1CO)CP(=O)(OCCCC)OCCCC)OCCCC [Compound 102, Tetrabutyl 2-[5-(3-hydroxy-4-hydroxymethyl-2-methyl)pyridylmethyl]1,3-propylidenediphosphonate]	–	–	–	89 % of control value	0.925	–
CCCCOP(=O)(CC(Cc1ccc(CN2CCN(c3ccccc3)CC2)cc1)CP(=O)(OCCCC)OCCCC)OCCCC [Compound 104]	–	–	–	59 % of control value	0.687	–
CCCCOP(=O)(CC(CCCC1(C)OCCO1)CP(=O)(OCCCC)OCCCC)OCCCC [Compound 106]	–	–	–	42 % of control value	0.570	potency in [^3 H]-PN200 110 binding (in words) ([4]; text on Table 1b): as potent as Nifedipine
C=CCCOP(=O)(CC(CCOc1ccccc1)CP(=O)(OCCC=C)OCCC=C)OCCC=C [Compound 110]	–	–	–	13 % of control value	0.294	–
CCCCCOP(=O)(CC(CCCc1ccccc1)CP(=O)(OCC)OCCCCC)OCC (centres unmarked) [Compound 117, Bis(ethyl, pentyl) 2-(3-phenylpropyl)-1,3-propylidenediphosphonate]	79 % of control value	0.950	–	–	–	modulation of [^3 H]-Nitrendipine binding (in words) [2]: strong inhibitors; activity at 1 µM [3]: 60 ± 4%; activity on KCl-induced trachea contraction (in words) [3]: potent pharmacological activity
C[C@](N)(Cc1ccc(O)c(O)c1)C(=O)O [Methyl Dopa, reference compound]	–	–	–	–	–	inhibition in vivo at 1 mg/kg [1]: 0%
CC(C)NCC(O)COc1cccc2ccccc12 (centres unmarked) [Propranolol, reference compound]	–	–	–	–	–	inhibition in vivo at 1 mg/kg [1]: 11.8 ± 1.1%
